{"source": "patent US5162318A", "about": "“Benzimidazolinone derivatives” (Yamanouchi Pharmaceutical Co., Ltd., priority 1990, dated 1992)", "key": {"[1]": {"tested_on": "pulmonary surfactant secretion", "assay": "Stimulatory effect on pulmonary surfactant secretion (disaturated phosphatidylcholine in bronchoalveolar lavage fluid)", "assay_type": "in vivo, guinea pig (male Hartley)", "settings": "guinea pigs; for Pharmacological activity: % increase of disaturated phosphatidylcholine (DSPC) compared to control values: 50 mg/kg i.p. once, lavage 3 hours later, number of animals in parentheses, * significantly different from control values (p < 0.05), Compounds A and B not marked *; for stimulation of pulmonary surfactant secretion (in words): conclusion from Table 1, 50 mg/kg i.p.", "method": "The stimulatory effect of the compound of the present invention on pulmonary surfactant secretion In the experiment, male Hartley guinea pigs weighing 300-350 g were used. Methods 50 mg/kg of the test compound was intraperitoneally administered to guinea pigs once. Three hours later, the animals were anesthetized with 100 mg/kg of pentobarbital sodium and sacrificed by bleeding from the abdominal aorta and vena cava. Then, bronchoalveolar lavage with 10 ml/kg of ice-cooled physiological saline was performed twice. The combined bronchoalveolar lavage fluid was centrifuged at 1,000 rpm for 10 minutes at 4° C. From the supernatant of bronchoalveolar lavage fluid, the lipid was extracted in accordance with the method of Folch et al. (Journal of Biological Chemistry, 226, 497-502, 1957). The characteristic component of pulmonary surfactant, i.e., disaturated phosphatidylcholine was extracted by the method of Gilfillan et al. (Journal of Lipid Research, 24, 1651- 1656, 1983). The disaturated phosphatidylcholine was assayed with Nescoat PL Kit-K (Nippon Shoji Co., Ltd.) and the percent increase compared to a control group was determined (M. Takayama, et al.: Clin. Chim. Acta, 79, 93-98, 1977)."}, "[2]": {"tested_on": "secretion of the endogenous pulmonary surfactant", "settings": "Post et al.: Lung 161, 349-359, 1983; cited from earlier work"}}, "note": "Structures can show the parent of a compound that is named as a salt.", "data": [{"smiles": "CN(C)CCn1c(=O)[nH]c2ccc(Br)cc21.Cl", "note": "[3(5), 6-Bromo-1,3-dihydro-1-(2-dimethylaminoethyl)-2H-benzimidazol-2-one hydrochloride]", "values": [{"measurement": "Pharmacological activity: % increase of disaturated phosphatidylcholine (DSPC) compared to control values", "setting": "[1]", "value": "27.9 ± 6.2", "unit": "%"}]}, {"smiles": "CN(C)CCn1c(=O)[nH]c2c(Br)cc(Br)cc21.Cl", "note": "[4(3), 4,6-Dibromo-1,3-dihydro-1-(2-dimethylaminoethyl)-2H-benzimidazol-2-one hydrochloride]", "values": [{"measurement": "Pharmacological activity: % increase of disaturated phosphatidylcholine (DSPC) compared to control values", "setting": "[1]", "value": "32.3 ± 7.0", "unit": "%"}]}, {"smiles": "CN(C)CCn1c(=O)[nH]c2ccc(Cl)cc21.Cl", "note": "[11(4), 6-Chloro-1,3-dihydro-1-(2-dimethylaminoethyl)-2H-benzimidazol-2-one hydrochloride]", "values": [{"measurement": "Pharmacological activity: % increase of disaturated phosphatidylcholine (DSPC) compared to control values", "setting": "[1]", "value": "37.8 ± 13.2", "unit": "%"}]}, {"smiles": "Cl.O=c1[nH]c2ccc(Cl)cc2n1CCN1CCCC1", "note": "[19(4), 6-Chloro-1,3-dihydro-1-[2-(1-pyrrolidinyl)ethyl]-2H-benzimidazol-2-one hydrochloride]", "values": [{"measurement": "Pharmacological activity: % increase of disaturated phosphatidylcholine (DSPC) compared to control values", "setting": "[1]", "value": "33.1 ± 8.3", "unit": "%"}]}, {"smiles": "CN(C)CCCn1c(=O)[nH]c2ccccc21", "note": "[Compound A, 1,3Dihydro-1-(3-dimethylaminopropyl)-2H-benzimidazol-2-one]", "values": [{"measurement": "stimulation of pulmonary surfactant secretion (in words)", "setting": "[1]", "value": "do not stimulate secretion of pulmonary surfactant but rather tend to decrease the secretion"}, {"measurement": "Pharmacological activity: % increase of disaturated phosphatidylcholine (DSPC) compared to control values", "setting": "[1]", "value": -9.3, "unit": "%"}]}, {"smiles": "CCN(CC)CCn1c(=O)[nH]c2ccccc21", "note": "[Compound B, 1,3Dihydro-1-(2-diethylaminoethyl)-2H-benzimidazol-2-one]", "values": [{"measurement": "stimulation of pulmonary surfactant secretion (in words)", "setting": "[1]", "value": "do not stimulate secretion of pulmonary surfactant but rather tend to decrease the secretion"}, {"measurement": "Pharmacological activity: % increase of disaturated phosphatidylcholine (DSPC) compared to control values", "setting": "[1]", "value": -20.7, "unit": "%"}]}, {"smiles": "CN(C)CCn1c(=O)[nH]c2ccccc21.Cl", "note": "[Example 12(5), 1,3-dihydro-1-(2-dimethylaminoethyl)-2H-benzimidazol-2-one hydrochloride]", "values": [{"measurement": "Pharmacological activity: % increase of disaturated phosphatidylcholine (DSPC) compared to control values", "setting": "[1]", "value": "27.4 ± 4.9", "unit": "%"}]}, {"smiles": "Nc1c(Br)cc(Br)cc1CN[C@H]1CC[C@H](O)CC1", "note": "[ambroxol hydrochloride]", "values": [{"measurement": "activity to promote secretion of the endogenous pulmonary surfactant (in words)", "setting": "[2]", "value": "only substance known to have such activity"}]}]}
